# Values quoted from earlier work, collected in PubChem BioAssay AID1259409 (Chemical Carcinogenesis Research Information System (CCRIS), 2018).
# System: rodent chemically induced tumor inhibition, incidence and multiplicity
# Assay: CCRIS tumor inhibitor studies
structure (smiles),measurement,setting,value
CS(=O)(=O)c1ccc(C2=C(c3ccccc3)C(=O)OC2)cc1,"tumour outcome (control, treated, inhibition, significance)","Carcinogen: N-METHYL-N-NITROSOUREA, 684-93-5, Dose [Inhibitor]: 0.001% IN DIET, BEGINNING 7 D BEFORE FIRST CARCINOGEN DOSE FOR 19 WK (STUDY DURATION: 19 WK), Route [Inhibitor]: ORAL, Species: RAT, Strain/Sex: SPRAGUE-DAWLEY/FEMALE, Target Tissue: Type of Lesion: MAMMARY GLAND: TUMOR, Dose [Carcinogen]: 50 MG/KG 1 WK FOR 2 WK","16/23 (69.6%), 10/24 (41.7%), 40%, not significant"
same,"tumour outcome (control, treated, inhibition, significance)","Carcinogen: N-METHYL-N-NITROSOUREA, 684-93-5, Dose [Inhibitor]: 0.005% IN DIET, BEGINNING 7 D BEFORE FIRST CARCINOGEN DOSE FOR 19 WK (STUDY DURATION: 19 WK), Route [Inhibitor]: ORAL, Species: RAT, Strain/Sex: SPRAGUE-DAWLEY/FEMALE, Target Tissue: Type of Lesion: MAMMARY GLAND: TUMOR, Dose [Carcinogen]: 50 MG/KG 1 WK FOR 2 WK","16/23 (69.6%), 10/25 (40%), 42.5%, p< 0.05"
CCCCC1OC(=O)c2ccccc21 (centres undefined),"tumour outcome (control, treated, inhibition, significance)","Carcinogen: BENZO[A]PYRENE, 50-32-8, Dose [Inhibitor]: 0, 20 MG 3/WK FOR 4 WK ON DAYS OTHER THAN THE CARCINOGEN TREATMENT (STUDY DURATION: 20 WK), Route [Inhibitor]: GAVAGE, Species: MOUSE, Strain/Sex: STRAIN-A/FEMALE, Target Tissue: Type of Lesion: FORESTOMACH: TUMOR, Dose [Carcinogen]: 1 MG IN 0.2 ML COTTONSEED OIL 2/WK FOR 4 WK, Promoter: NONE USED","13/19 (68%), 6/20 (30%), 56%, p<0.005"
CCOC(=O)/C=C(C)/C=C/C=C(C)/C=C/c1c(C)cc(OC)c(C)c1C,"tumour outcome (control, treated, inhibition, significance)","Carcinogen: 7,12-DIMETHYLBENZ[A]ANTHRACENE, 57-97-6, Dose [Inhibitor]: 140 NMOL IN 0.2 ML ACETONE 2/WK (D 1 AND D 4 OF EACH WK) 1 HR BEFORE EACH PROMOTER APPLICATION STARTING 14 D AFTER CARCI, Route [Inhibitor]: DERMAL, Species: MOUSE, Strain/Sex: CD-1/FEMALE, Target Tissue: Type of Lesion: SKIN: PAPILLOMA, Dose [Carcinogen]: 0.2 UMOL IN 0.2 ML ACETONE ONCE, Promoter: 12-O-TETRADECANOYLPHORBOL-13-ACETATE, 16561-29-8","90%, 38%, 58%, not calculated"
same,"tumour outcome (control, treated, inhibition, significance)","Carcinogen: TRANS-5-AMINO-3-[2-(5-NITRO-2-FURYL)VINYL]-1,2,4-OXADIAZOLE;SQL8506, 28754-68-9, Carcinogen: TRANS-5-AMINO-3-[2-(5-NITRO-2-FURYL)VINYL]-1,2,4-OXADIAZOLE;SQL8506, 28754-68-9, Dose [Inhibitor]: 75 MG/KG 18 HR BEFORE THE 1ST DOSE OF EACH CARCINOGEN TREATMENT (STUDY DURATION: LIFETIME), Route [Inhibitor]: ORAL, Species: MOUSE, Strain/Sex: CD-1/FEMALE, Target Tissue: Type of Lesion: HEMATOPOIETIC SYSTEM: MYELOID LEUKEMIA, Dose [Carcinogen]: 1 G/KG 2/D FOR 5 D EVERY 4 WK FOR 3 COURSES OF TREATMENT, Promoter: NONE USED","7/137 (5%), 0/44 (0%), 100%, not calculated"
same,"tumour outcome (control, treated, inhibition, significance)","Carcinogen: TRANS-5-AMINO-3-[2-(5-NITRO-2-FURYL)VINYL]-1,2,4-OXADIAZOLE;SQL8506, 28754-68-9, Carcinogen: TRANS-5-AMINO-3-[2-(5-NITRO-2-FURYL)VINYL]-1,2,4-OXADIAZOLE;SQL8506, 28754-68-9, Dose [Inhibitor]: 75 MG/KG 18 HR BEFORE THE 1ST DOSE OF EACH CARCINOGEN TREATMENT (STUDY DURATION: LIFETIME), Route [Inhibitor]: ORAL, Species: MOUSE, Strain/Sex: CD-1/FEMALE, Target Tissue: Type of Lesion: LYMPHOID TISSUE: NONTHYMIC LYMPHOMA, Dose [Carcinogen]: 1 G/KG 2/D FOR 5 D EVERY 4 WK FOR 3 COURSES OF TREATMENT, Promoter: NONE USED","8/137 (6%), 6/44 (14%), -133%, not calculated"
same,"tumour outcome (control, treated, inhibition, significance)","Carcinogen: TRANS-5-AMINO-3-[2-(5-NITRO-2-FURYL)VINYL]-1,2,4-OXADIAZOLE;SQL8506, 28754-68-9, Carcinogen: TRANS-5-AMINO-3-[2-(5-NITRO-2-FURYL)VINYL]-1,2,4-OXADIAZOLE;SQL8506, 28754-68-9, Dose [Inhibitor]: 75 MG/KG 18 HR BEFORE THE 1ST DOSE OF EACH CARCINOGEN TREATMENT (STUDY DURATION: LIFETIME), Route [Inhibitor]: ORAL, Species: MOUSE, Strain/Sex: CD-1/FEMALE, Target Tissue: Type of Lesion: LYMPHOID TISSUE: THYMIC LYMPHOMA, Dose [Carcinogen]: 1 G/KG 2/D FOR 5 D EVERY 4 WK FOR 3 COURSES OF TREATMENT, Promoter: NONE USED","22/137 (16%), 5/44 (11%), 31%, not calculated"
same,"tumour outcome (control, treated, inhibition, significance)","Carcinogen: TRANS-5-AMINO-3-[2-(5-NITRO-2-FURYL)VINYL]-1,2,4-OXADIAZOLE;SQL8506, 28754-68-9, Carcinogen: TRANS-5-AMINO-3-[2-(5-NITRO-2-FURYL)VINYL]-1,2,4-OXADIAZOLE;SQL8506, 28754-68-9, Dose [Inhibitor]: 75 MG/KG 18 HR BEFORE THE 1ST DOSE OF EACH CARCINOGEN TREATMENT (STUDY DURATION: LIFETIME), Route [Inhibitor]: ORAL, Species: MOUSE, Strain/Sex: CD-1/FEMALE, Target Tissue: Type of Lesion: STOMACH: SQUAMOUS CARCINOMA, Dose [Carcinogen]: 1 G/KG 2/D FOR 5 D EVERY 4 WK FOR 3 COURSES OF TREATMENT, Promoter: NONE USED","60/137 (44%), 26/44 (59%), -34%, not calculated"
COC(=O)[C@H](CCSC)NC(C)=O,"tumour outcome (control, treated, inhibition, significance)","Carcinogen: 7,12-DIMETHYLBENZ[A]ANTHRACENE, 57-97-6, Dose [Inhibitor]: 0.06 MMOL/G DIET DAILY FOR 17 WK STARTING 1 WK PRIOR TO CARCINOGEN TREATMENT AND CONTINUING THROUGH THE END OF THE STUDY, Route [Inhibitor]: ORAL, Species: RAT, Strain/Sex: SPRAGUE-DAWLEY/FEMALE, Target Tissue: Type of Lesion: MAMMARY GLAND: TUMOR, Dose [Carcinogen]: 12 MG IN 1 ML OLIVE OIL ONCE, Promoter: NONE USED","59%, 75%, -27%, not calculated"
